In US20200255492A1, “LEPTIN PEPTIDES AND THEIR USE FOR TREATING NEUROLOGICAL DISORDERS” (UNIVERSITY OF DUNDEE, priority 2017, published 2020):

Legend:
C57/BL6 mice = experiment: Object-place-context (OPC) recognition task, episodic-like memory; format: in vivo; settings: 100 μl IP of 7.8 nM/ml 30 min prior to testing
Protocol: FIG. 7A, FIG. 7B, FIG. 7C and FIG. 7D show Leptin (116-130) enhances episodic-like memory. FIG. 7A: object-place-context task used to assess episodic-like memory. There are 2 sample phases in which mice are exposed to different copies of 2 different objects (star and hexagon) and allowed to explore for 3 min. In the test phase they see 2 new copies of 1 of the objects. The arrow points to the object that has not been previously seen in that place within that context. FIG. 7B: mean±SEM discrimination index for the 3 groups. *P<0.05. FIG. 7C: total exploration time in the test phase is not different between groups. FIG. 7D: exploration of the novel and familiar objects in the test phase; treatment with leptin or the leptin fragment (116-130) enhanced performance on the episodic-like memory test.
To further assess its therapeutic potential we next asked if this fragment has similar cognitive enhancing properties to the whole leptin molecule. Previous studies indicate that leptin enhances hippocampal-dependent memory (Oomura et al. 2006; Farr et al. 2006), whereas resistance to lep-tin results in impaired spatial memory (Li et al. 2002). We used the object-place-context (OPC) recognition task which models human episodic memory, the first cognitive process to be compromised in the early stages of AD (Swainson et al. 2001). […]

SH-SY5Y neural cells = experiment: Serum/glucose deprivation (in vitro model of stroke), crystal violet assay; format: cell-based, human; settings: 96 hours; range of concentrations
Protocol: Cultures were established on 7 separate occasions in quadruplicate and starved of serum and glucose when they reached 70% confluence. Neural cell viability in response to a range of concentrations of leptin116-130 was determined 96 hours later using a crystal violet assay to measure cell number. Statistical significance relative to serum/glucose deprivation is denoted with ** where P<0.01 and *** where P<0.001. Photomicrographs of serum/glucose deprived cultures and of serum/glucose deprived cultures treated with 0.1 nM leptin116-130 (B) further highlight the enhanced cell number in the presence of leptin116-130. Scale bar represents 25 μm. […]
The concentration of lactate dehydrogenase (LDH) in the culture medium or the mitochondrial activity within cells was used to monitor the level of cell death, as previously (Oldreive and Doherty 2010). […] Plates were washed 5-10 times in dH2O and cells solubilised in 100 μl dimethyl sulfoxide (DMSO) before reading the absorbance on a Biohit BP100 plate reader. For all assays, data is expressed as percentage relative to control, untreated wells to normalize for differences in plating density between individual experiments.

mitochondria = experiment: MitoRed analysis of mitochondrial morphology after 6-OHDA (cellular Parkinson's Disease model); format: cell-based; settings: 0.1 nM plus 100 μM 6-OHDA; 1 hour
Protocol: Cultures were established on 3 separate occasions in quadruplicate and stained with MitoRED to identify mitochondria after 1 hour of treatment. Statistical significance relative to untreated control is denoted with ** where P<0.01 and *** where P<0.001. Representative images of 100 μM 6-OHDA-treated MitoRED stained cultures (C) and 100 μM 6-OHDA and leptin116-130 co-treated MitoRED stained cultures are shown. Scale bar represents […].
The human neuroblastoma cell line, SH-SY5Y (ECACC, UK) was maintained in Dulbecco's Modified Eagle Medium supplemented with glucose ([…]) and 10% (v/v) cosmic calf serum (Fisher Scientific, UK) at 37° C. in a humidified atmosphere of 5% CO2, 95% air and allowed to reach 70-80% confluence before seeding. Cells (passage 10-18) were plated at 2×10^5 cells on 13 mm borosilicate class coverslips or at 10 000 cells per well in 96 well tissue culture plates (Nunc, VWR, UK) prior to treatment. Reagents used were (from Sigma UK unless stated) 1 nM human leptin, leptin (116-121), leptin (117-122) and leptin (117-125); 0.0001-1 nm murine leptin fragments leptin (116-121), leptin (117-122) and leptin (116-130); 100 μM 6-hydroxydopamine; 10 μM CuCl2; […] Aβ1-42.
Cells were treated with pre-warmed cell culture medium containing 1 μM MitoRed ((9-[2-(4′-Methylcoumarin-7′-oxycarbonyl)phenyl]-3,6-bis(diethylamino)xanthylium chloride) and returned to the incubator for 45 minutes. Following fixation in NBF for 15 minutes, cells were washed 3 times in PBS. Coverslips were mounted in fluorescence mountant onto microscope slides and imaged on the Zeiss Axio MR2 microscope. The mean mitochondrial area and index of fragmentation (number of mitochondria: total area of mitochondrial material) were calculated using Fiji.

[1] = tested on: leptin-deficient ob/ob mice; settings: cited from earlier work

Row | Substance | performance (discrimination index) in episodic-like OPC task (C57/BL6 mice) | survival following serum/glucose deprivation (SH-SY5Y neural cells) | mitochondrial clumping (fragmentation index) with 6-OHDA (mitochondria) | mitochondrial swelling (mean mitochondrial area) with 6-OHDA (mitochondria) | body weight [1] | food intake [1]
1 | SCSLPQTSGLQKPES (listed as Mus musculus) [leptin (116-130)] | enhanced performance on the task relative to the control group | significant neuroprotection | prevents 6-OHDA-associated mitochondrial clumping | prevents 6-OHDA-associated mitochondrial swelling | reduced food intake and body weight | reduced food intake and body weight
2 | SCSLPQ (listed as Mus musculus) [leptin (116-121)] | – | – | – | – | reduced food intake and body weight | reduced food intake and body weight
3 | leptin: the metabolic hormone leptin, whole (full length) leptin molecule; human leptin from Sigma in SH-SY5Y work | enhanced performance on the task relative to the control group | – | – | – | – | –
